# Reference: ChEMBL document CHEMBL3351785, “Discovery of nanomolar phosphoinositide 3-kinase gamma (PI3Kγ) inhibitors using ligand-based modeling and virtual screening followed by in vitro analysis” (Eur J Med Chem, 2014)
# Non-standard residues stand in square brackets, D forms with d. Residues, ends and D or L forms follow the SMILES beside them. *: point of attachment. Cbz = O=C(OCc1ccccc1)*; Nva = CCC[CH](N)C(=O)O; Bn = c1ccc(C*)cc1
# Target: T1, Phosphatidylinositol 4,5-bisphosphate 3-kinase catalytic subunit gamma isoform (Homo sapiens, UniProt P48736)
# Assay: Inhibition of PI3Kgamma (unknown origin) assessed as decrease in fluorescence intensity using phosphorylated substrate
# Target sequence in this assay (P48736 whole entry, canonical isoform): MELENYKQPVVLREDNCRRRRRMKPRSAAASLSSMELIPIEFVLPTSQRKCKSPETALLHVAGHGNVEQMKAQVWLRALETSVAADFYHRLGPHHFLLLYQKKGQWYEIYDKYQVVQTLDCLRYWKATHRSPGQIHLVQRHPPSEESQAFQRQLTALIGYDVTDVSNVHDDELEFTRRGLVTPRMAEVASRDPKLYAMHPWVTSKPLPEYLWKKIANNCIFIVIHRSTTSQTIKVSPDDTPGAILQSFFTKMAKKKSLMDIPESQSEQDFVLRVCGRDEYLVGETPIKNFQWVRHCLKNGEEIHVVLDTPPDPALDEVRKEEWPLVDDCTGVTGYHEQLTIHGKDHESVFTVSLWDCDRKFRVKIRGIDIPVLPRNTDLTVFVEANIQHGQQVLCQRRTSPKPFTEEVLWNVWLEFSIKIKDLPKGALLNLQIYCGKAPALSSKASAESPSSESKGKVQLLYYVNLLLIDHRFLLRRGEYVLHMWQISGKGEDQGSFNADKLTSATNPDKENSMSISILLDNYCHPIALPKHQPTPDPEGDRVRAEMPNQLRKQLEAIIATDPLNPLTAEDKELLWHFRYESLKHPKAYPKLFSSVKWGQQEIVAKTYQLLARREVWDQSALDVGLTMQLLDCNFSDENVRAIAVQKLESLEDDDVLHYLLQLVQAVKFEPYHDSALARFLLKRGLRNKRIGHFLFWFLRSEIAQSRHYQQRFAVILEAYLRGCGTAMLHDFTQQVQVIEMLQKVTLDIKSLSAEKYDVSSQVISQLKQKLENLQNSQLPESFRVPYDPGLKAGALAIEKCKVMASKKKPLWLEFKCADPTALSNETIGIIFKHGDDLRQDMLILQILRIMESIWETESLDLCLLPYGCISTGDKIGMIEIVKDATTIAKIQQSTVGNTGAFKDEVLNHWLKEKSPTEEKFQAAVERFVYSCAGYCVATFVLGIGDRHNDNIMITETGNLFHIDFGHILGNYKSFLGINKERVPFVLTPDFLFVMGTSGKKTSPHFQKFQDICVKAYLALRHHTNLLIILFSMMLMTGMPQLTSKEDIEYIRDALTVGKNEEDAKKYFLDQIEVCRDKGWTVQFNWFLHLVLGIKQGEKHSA
row,Compound,IC50
1,CCOc1ccc(Nc2ccc3c(O)cc(S(=O)(=O)O)cc3c2)cc1,992 nM
2,O=c1cc(N2CCOCC2)[nH]c2c(Cc3ccccc3)cccc12,10900 nM
3,Cc1cccc(CN2C(=O)COc3ccc(/C=C4\SC(=S)NC4=O)cc32)c1,184 nM
4,Cc1cc(C(=O)O)c(C)cc1SSc1cc(C)c(C(=O)O)cc1C,1460 nM
5,O=C(COc1ccc(Cl)cc1C(=O)O)Nc1cccc(NC(=O)Nc2cccc(S(=O)(=O)F)c2)c1,9160 nM
6,O=C1NC(=S)S/C1=C\c1ccc2c(c1)N(CCc1ccc(Br)cc1)C(=O)CO2,9.9 nM
7,O=C1NC(=S)S/C1=C\c1ccc2c(c1)N(Cc1ccc(C(F)(F)F)cc1)C(=O)CO2,116 nM
8,N#Cc1ccc(CN2C(=O)COc3ccc(/C=C4\SC(=S)NC4=O)cc32)cc1,152 nM
9,CC(C)(C)c1ccc(CCN2C(=O)COc3ccc(/C=C4\SC(=S)NC4=O)cc32)cc1,140 nM
10,O=C1NC(=S)S/C1=C\c1ccc2c(c1)N(CCc1ccccc1)C(=O)CO2,103 nM
11,O=C(NC(Cc1ccc(OC(=O)OCc2ccccc2)cc1)C(=O)O)OCc1ccccc1 (stereo unspecified),324 nM
12,COc1ccccc1CNc1cc(C)cc2c(=O)cc(N3CCOCC3)[nH]c12,10700 nM
13,Cc1ccc(CN2C(=O)COc3ccc(/C=C4\SC(=S)NC4=O)cc32)cc1,124 nM
14,Cc1ccc(CN2C(=O)COc3ccc(/C=C4\SC(=S)NC4=O)cc32)cc1C,11 nM
15,O=C1NC(=S)S/C1=C\c1ccc(-c2cc([N+](=O)[O-])ccc2Br)o1,3600 nM
16,COc1cc2cc(C(=O)O)[nH]c2cc1OCc1ccccc1,105 nM
17,O=c1cc(N2CCOCC2)[nH]c2c(OCc3ccccc3)cccc12,10900 nM
18,COc1ccccc1-c1ccc(/C=C2\SC(=O)NC2=O)o1,1000 nM
19,O=c1c2c(Cl)cccc2nc(CSc2ncnc3[nH]cnc23)n1-c1ccccc1F,3630 nM

row,Compound,IC50
1,COc1cc(O)cc(/C=C2\SC(=S)NC2=O)c1,328 nM
2,O=c1c2ccc(F)cc2nc(CSc2ncnc3[nH]cnc23)n1-c1ccccc1Cl,145000 nM
3,O=C(O)C[S+]([O-])c1ccc2c3c(cccc13)C(=O)c1ccccc1-2 (stereo unspecified),1570 nM
4,Cc1ccccc1-n1c(CSc2ncnc3[nH]cnc23)nc2cccc(Cl)c2c1=O,2540 nM
5,O=c1cc(N2CCOCC2)[nH]c2c(Oc3ccccc3F)cccc12,7260 nM
6,O=C1NC(=S)S/C1=C\c1ccc2c(c1)N(CCc1ccc(Cl)cc1)C(=O)CO2,20.1 nM
7,Cc1cccc(CCN2C(=O)COc3ccc(/C=C4\SC(=S)NC4=O)cc32)c1,20.9 nM
8,CCCCn1c(CSc2ncnc3[nH]cnc23)nc2ccccc2c1=O,218000 nM
9,O=c1c2ccccc2nc(CSc2ncnc3[nH]cnc23)n1-c1ccccc1Cl,27900 nM
10,O=c1c2c(Cl)cccc2nc(CSc2ncnc3[nH]cnc23)n1-c1ccccc1Cl,5450 nM
11,O=C1NC(=S)S/C1=C\c1ccc2c(c1)N(CCc1ccc(Cl)cc1Cl)C(=O)CO2,18.1 nM
12,O=C(O)c1ccccc1SC(Sc1ccccc1C(=O)O)c1cccc(Cl)c1,187 nM
13,COc1cc2cc3c4cc(OC)c(OC)cc4cc[n+]3c(CCC(=O)O)c2cc1OC,7330 nM
14,Cc1cc(F)ccc1Oc1cccc2c(=O)cc(N3CCOCC3)[nH]c12,18100 nM
15,COc1cc(C[C@@H](CC(=O)c2ccc3c(c2)OCO3)C(=O)O)cc(OC)c1OC,575 nM
16,O=C1NC(=S)S/C1=C\c1ccc2c(c1)N(Cc1ccc(Cl)cc1)C(=O)CO2,30 nM
17,COc1ccc(C(CC(=O)O)c2cc(OC)c(OC)c(OC)c2)cc1OC (stereo unspecified),6070 nM
18,COc1cccc(CCN2C(=O)COc3ccc(/C=C4\SC(=S)NC4=O)cc32)c1,11.2 nM
19,CCCCOc1ccc(C(CC(=O)O)CC(=O)O)cc1OC,134 nM

row,Compound,IC50
1,O=C1NC(=S)S/C1=C\c1ccc2c(c1)N(CCc1ccc(C(F)(F)F)cc1)C(=O)CO2,8.1 nM
2,O=c1c2c(F)cccc2nc(CSc2ncnc3[nH]cnc23)n1-c1ccccc1Cl,13100 nM
3,O=C1NC(=S)S/C1=C\c1ccc2c(c1)N(CCc1cccc(Cl)c1)C(=O)CO2,18 nM
4,Cc1cc(C)cc(CCN2C(=O)COc3ccc(/C=C4\SC(=S)NC4=O)cc32)c1,11.2 nM
5,O=C1NC(=S)S/C1=C\c1ccc2c(c1)N(Cc1ccccc1)C(=O)CO2,97 nM
6,Cc1cccc2nc(CSc3ncnc4[nH]cnc34)n(-c3ccccc3Cl)c(=O)c12,6170 nM
7,COc1cc(C(CC(=O)O)CC(=O)O)ccc1OCc1ccccc1,5880 nM
8,COc1ccc2cc(C(=O)CCCC(C)C(=O)O)ccc2c1 (stereo unspecified),5180 nM
9,CC(C)(C)c1ccc(CN2C(=O)COc3ccc(/C=C4\SC(=S)NC4=O)cc32)cc1,10.2 nM
10,COc1ccccc1-n1c(CSc2ncnc3[nH]cnc23)nc2cccc(C)c2c1=O,1820 nM
11,Cc1ccc(CCN2C(=O)COc3ccc(/C=C4\SC(=S)NC4=O)cc32)cc1,37.3 nM
12,O=c1c2ccccc2nc(CSc2ncnc3[nH]cnc23)n1N1CCOCC1,138000 nM
13,O=c1c2c(Cl)cccc2nc(CSc2ncnc3[nH]cnc23)n1-c1ccccc1-c1ccccc1,7620 nM
14,COc1cc(CCN2C(=O)COc3ccc(/C=C4\SC(=S)NC4=O)cc32)cc(OC)c1,11.8 nM
15,COc1ccc(C(CC(=O)c2ccc3c(c2)OCO3)C(=O)O)cc1OC (stereo unspecified),234 nM
16,COc1ccc(CCN2C(=O)COc3ccc(/C=C4\SC(=S)NC4=O)cc32)cc1,27.7 nM
17,O=C1NC(=S)S/C1=C\c1ccc2c(c1)N(CCc1ccc(Cl)c(Cl)c1)C(=O)CO2,18.4 nM
18,O=c1cc(N2CCOCC2)[nH]c2c(Oc3ccc(F)cc3)cccc12,18100 nM
19,O=C1NC(=S)S/C1=C\c1ccc2c(c1)N(CCc1ccc(F)c(F)c1)C(=O)CO2,20.4 nM

# Target: T1, Phosphatidylinositol 4,5-bisphosphate 3-kinase catalytic subunit gamma isoform
# Assay: Inhibition of PI3Kgamma (unknown origin) assessed as decrease in fluorescence intensity using phosphorylated substrate at 10 uM
# Target sequence in this assay (P48736 whole entry, looked up, canonical isoform): as the sequence (P48736 whole entry, canonical isoform) above
row,Compound,inhibition
1,CCOc1ccc(Nc2ccc3c(O)cc(S(=O)(=O)O)cc3c2)cc1,72%
2,Cc1cc2c(cc1C(=O)CCC(=O)O)CC1(C2)Cc2cc(C)c(C(=O)CCC(=O)O)cc2C1,67%
3,Cc1cc(C(=O)O)c(C)cc1SSc1cc(C)c(C(=O)O)cc1C,83%
4,O=C(COc1ccc(Cl)cc1C(=O)O)Nc1cccc(NC(=O)Nc2cccc(S(=O)(=O)F)c2)c1,51%
5,CC(C)CC(NC(=O)OCc1ccccc1)C(=O)NC(Cc1ccc(O)cc1)C(=O)O (stereo not drawn) (Cbz-Leu-Tyr-OH; configuration not given here),57%
6,O=C(O)C(Nc1ccc(Oc2ccc(NC(C(=O)O)c3ccccc3)cc2)cc1)c1ccccc1 (stereo unspecified),57%
7,O=C(NC(Cc1ccc(OC(=O)OCc2ccccc2)cc1)C(=O)O)OCc1ccccc1 (stereo unspecified),79%
8,CCOc1nc(OCC)c2[nH]c(C(=O)O)c(Br)c2n1,50%
9,O=C(O)Cc1ccc(OCCCCCOc2ccc(CC(=O)O)cc2)cc1,7%
10,COc1cc2cc(C(=O)O)[nH]c2cc1OCc1ccccc1,100%
11,COc1ccccc1/N=N/c1c(O)c(S(=O)(=O)O)cc2cc(S(=O)(=O)O)ccc12,76%
12,O=C(O)Cc1ccc(OCCCOc2ccc(CC(=O)O)cc2)cc1,24%
13,O=C(O)C[S+]([O-])c1ccc2c3c(cccc13)C(=O)c1ccccc1-2 (stereo unspecified),67%
14,CCCCOc1ccc(CCC(=O)O)cc1OCCCC,20%
15,COC[C@H]1OC(=O)c2coc3c2[C@@]1(C)C1=C(C3=O)[C@@H]2CCC(=O)[C@@]2(C)C[C@H]1OC(C)=O,100%
16,COc1cc(/N=N\c2ccc(S(=O)(=O)O)cc2)ccc1/N=N/c1c(O)ccc2cc(S(=O)(=O)O)ccc12,62%
17,O=S(=O)(O)c1ccc(OCCCCCCCCCCOc2ccc(S(=O)(=O)O)cc2)cc1,11%
18,CCN1C(=O)/C(=C\c2cc([N+](=O)[O-])ccc2OCC(=O)O)SC1=S,81%
19,O=C(O)c1ccccc1SC(Sc1ccccc1C(=O)O)c1cccc(Cl)c1,88%
20,COc1cc2cc3c4cc(OC)c(OC)cc4cc[n+]3c(CCC(=O)O)c2cc1OC,57%

row,Compound,inhibition
1,COc1cc(C[C@@H](CC(=O)c2ccc3c(c2)OCO3)C(=O)O)cc(OC)c1OC,83%
2,COc1ccc(C(CC(=O)O)c2cc(OC)c(OC)c(OC)c2)cc1OC (stereo unspecified),58%
3,O=S(=O)(O)c1cc(O)c2ccc(Nc3ccc4c(O)cc(S(=O)(=O)O)cc4c3)cc2c1,31%
4,O=C(NC(CSCc1ccccc1)C(=O)NC(Cc1ccc(O)cc1)C(=O)O)OCc1ccccc1 (stereo unspecified) (Cbz-Cys(Bn)-Tyr-OH; configuration not given here),40%
5,O=C(NC(Cc1ccc(O)cc1)C(=O)O)C(=O)c1c[nH]c2ccc([N+](=O)[O-])cc12 (stereo unspecified),34%
6,CCCCOc1ccc(C(CC(=O)O)CC(=O)O)cc1OC,98%
7,CCCC(NC(=O)OCc1ccccc1)C(=O)NC(Cc1ccc(O)cc1)C(=O)O (stereo unspecified) (Cbz-[Nva]-Tyr-OH; configuration not given here),10%
8,CSCCC(NCc1c(O)ccc2c(-c3ccccc3)cc(=O)oc12)C(=O)O (stereo unspecified),27%
9,O=C(O)CCC(=O)c1ccc(Oc2ccc(Cl)cc2)cc1,51%
10,O=C(NC(Cc1ccccc1)C(=O)NC(Cc1ccc(O)cc1)C(=O)O)OCc1ccccc1 (stereo not drawn) (Cbz-Phe-Tyr-OH; configuration not given here),34%
11,COc1ccccc1/N=N/c1c(O)ccc2cc(S(=O)(=O)O)ccc12,19%
12,COc1cc(C(CC(=O)O)CC(=O)O)ccc1OCc1ccccc1,57%
13,COc1ccc2cc(C(=O)CCCC(C)C(=O)O)ccc2c1 (stereo unspecified),58%
14,CCCCCCCCCCCCCCCC1=NN(c2ccc(S(=O)(=O)O)cc2)C(=O)C1/N=N/c1ccccc1 (stereo unspecified),92%
15,O=S(=O)(O)c1ccc2c(/N=N/c3ccccc3Cl)c(O)ccc2c1,76%
16,O=C(CCCCn1cnc2c(SCc3ccccc3)ncnc21)Nc1ccc(C(=O)O)c(O)c1,37%
17,Cc1ccccc1/N=N\c1ccc(/N=N/c2c(O)ccc3cc(S(=O)(=O)O)ccc23)c(C)c1,64%
18,COc1ccc(C(CC(=O)c2ccc3c(c2)OCO3)C(=O)O)cc1OC (stereo unspecified),94%
19,O=S(=O)(O)c1ccc(OCCCCCCCCOc2ccc(S(=O)(=O)O)cc2)cc1,83%
